Where two headings read alike, the source gives them in different places.
Columns and labels:
Assay type in all cases: cell-based
[1] = tested on: HIV; conditions: EC50 in the presence of human serum (25%) versus without human serum, MT-4 cells
Method in brief: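 Compound is preincubated 1 h at room temperature with human serum, or with medium alone as the serum-free control. MT-4 cells infected with HIV (1 h, 37° C) are added and cultured 4 days. EC50 is determined with and without serum; their ratio gives the potency shift.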

[2] = tested on: HIV (HTLV-IIIB strain); experiment: HIV replication inhibition assay (Test Example 1; MT-4 cells, MTT)
Description: HIV (HTLV-IIIB strain) persistent infected human T cell strain Molt-4 clone8 was cultured in RPMI-1640 medium supplemented with 10% fetal bovine serum and the supernatant was filtered, then the virus titer was measured and stored at −80° C. Each anti-human immunodeficiency virus active substance was diluted with the above culture medium to the designated concentration, which was dispensed into 96-well microtiter plate by 50 μL. Next, 100 μL of MT-4 cell suspension (2.5×10^4 cells) was dispensed into each well, then 50 μl of the above HIV-containing supernatant diluted with the above culture medium was added thereto (60 pfu (plaque forming unit)).
Cell mixture was cultured at 37° C. in CO2 incubator for four days, then 30 μL of MTT (3-(4,5-dimethylthiazole-2-yl)-2,5-diphenyltetrazolyum bromide) reagent (5 mg/mL in PBS) was added to all wells followed by incubation for 1 hour. In this step, MTT was reduced to insoluble formazan in living cells. To elute generated formazan 150 μL of the culture supernatant was removed from all wells, then 150 μL of cell lysis solution (10% Triton X-100 and 0.4% (v/v)-HCl containing isopropanol) was added thereto, followed by shaking with a plate mixer. The formazan was measured with micro plate reader at OD: 560 nm and 690 nm (reference wavelength) and the result was compared with the reference wells. EC50 and EC90 mean the compound concentration at which cytotoxicity caused by virus infection is inhibited 50% and 90%, respectively.

[3] = tested on: T125A mutant virus (HIV-1 NL-432 recombinant molecular clone, IN gene); experiment: HIV replication inhibition assay against integrase 124/125 mutant virus (Test Example 2)
Method in brief: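 MT-4 cells (2.5×10^4 per well) infected with 60 pfu of 293T-derived HIV-1 NL-432 clone carrying integrase 124/125 point mutations, in presence of compound, cultured 4 days at 37 °C. Viability by MTT formazan at 560/690 nm; EC50 = concentration inhibiting 50% of virus-induced cytotoxicity.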

[4] = Human immunodeficiency virus 1, MT4, 96 h, HIV (HTLV-IIIB strain), MT-4 cells, MTT, four days, read-out: EC50
[5] = Human immunodeficiency virus 1, MT4, 96 h, HIV (HTLV-IIIB strain), MT-4 cells, MTT, four days, read-out: EC90
[6] = Human immunodeficiency virus 1, MT4, read-out: EC50 against T125A mutant virus, T125A mutant virus (HIV-1 NL-432 IN gene), MT-4 cells, MTT
[7] = Human immunodeficiency virus 1, IIIB, MT4, 96 h
[8] = Human immunodeficiency virus 1, MT4, 96 h, MT-4 cells, HIV HTLV-IIIB strain, cultured four days, MTT, read-out: EC50
[9] = HIV (HTLV-IIIB strain), MT-4 cells, MTT, four days, read-out: EC50
[10] = HIV (HTLV-IIIB strain), MT-4 cells, MTT, four days, read-out: EC90
[11] = T125A mutant virus (HIV-1 NL-432 IN gene), MT-4 cells, MTT, read-out: EC50 against T125A mutant virus

| SMILES | Potency shift value [1] | EC50 [2, 4] [nM] | EC90 [2, 5] [nM] | EC50 [3, 6] [nM] | EC50 [2, 7] [nM] | EC90 [2, 7] [nM] | EC50 [2, 8] [nM] | EC50 [2, 9] [nM] | EC90 [2, 10] [nM] | EC50 [3, 11] [nM] |
| --- | --- | --- | --- | --- | --- | --- | --- | --- | --- | --- |
| Cc1ccc(-c2c([C@H](OC(C)(C)C)C(=O)O)c(C)c3c4c2cc(C)n4CCN3C)c(O)c1 (mixture of isomers) [Compound I-245] | 12 | 27 | 42 | 63 | – | – | – | – | – | – |
| Cc1ccc(-c2c([C@H](OC(C)(C)C)C(=O)O)c(C)c3c4c2c(Cl)c(C)n4CCN3C)cc1 [Compound I-002] | – | 2.2 | 3.5 | 21 | – | – | – | – | – | – |
| Cc1ccc(-c2c([C@H](OC(C)(C)C)C(=O)O)c(C)c3c4c2ccn4CCN3C)cc1 [Compound I-004] | – | 4.1 | 6 | 48 | – | – | – | – | – | – |
| Cc1ccc(-c2c([C@H](OC(C)(C)C)C(=O)O)c(C)c3c4c2cc(COCc2ccccc2)n4CCN3C)cc1 [Compound I-005] | 7.8 | 31 | 46 | – | – | – | – | – | – | – |
| Cc1ccc(-c2c([C@H](OC(C)(C)C)C(=O)O)c(C)c3c4c2cc(C(F)(F)F)n4CCN3C)cc1 [Compound I-007] | 49 | 2 | 3.6 | 18 | – | – | – | – | – | – |
| CCN1CCn2c(C)cc3c(-c4ccc(C)cc4)c([C@H](OC(C)(C)C)C(=O)O)c(C)c1c32 [Compound I-009] | 38 | 0.98 | 1.6 | 14 | – | – | – | – | – | – |
| COCc1cc2c(-c3ccc(C)cc3)c([C@H](OC(C)(C)C)C(=O)O)c(C)c3c2n1CCN3C [Compound I-011] | 21 | 16 | 24 | – | – | – | – | – | – | – |
| CCCc1cc2c(-c3ccc(C)cc3)c([C@H](OC(C)(C)C)C(=O)O)c(C)c3c2n1CCN3C [Compound I-013] | 49 | 9.7 | 15 | – | – | – | – | – | – | – |
| CC(=O)N1CCn2c(C)cc3c(-c4ccc(C)cc4)c([C@H](OC(C)(C)C)C(=O)O)c(C)c1c32 [Compound I-014] | 8.7 | 1.6 | 2.2 | 15 | – | – | – | – | – | – |
| Cc1ccc(-c2c([C@H](OC(C)(C)C)C(=O)O)c(C)c3c4c2cc(C)n4CCN3)cc1 [Compound I-015] | 11 | 27 | 40 | – | – | – | – | – | – | – |
| Cc1c([C@H](OC(C)(C)C)C(=O)O)c(-c2ccc(Cl)cc2)c2cc(C)n3c2c1NC(=O)C3 [Compound I-016] | 8.6 | 8.7 | 13 | 42 | – | – | – | – | – | – |
| Cc1c([C@H](OC(C)(C)C)C(=O)O)c(-c2ccc(Cl)cc2)c2cc(C)n3c2c1N(C(=O)CN(C)C)CC3 [Compound I-017] | 4.5 | 20 | 31 | 94 | – | – | – | – | – | – |
| CNCC(=O)N1CCn2c(C)cc3c(-c4ccc(Cl)cc4)c([C@H](OC(C)(C)C)C(=O)O)c(C)c1c32 [Compound I-018] | 6.8 | 83 | 100 | – | – | – | – | – | – | – |
| Cc1ccc(-c2c([C@H](OC(C)(C)C)C(=O)O)c(C)c3c4c2cc(C)n4CC(=O)N3C)cc1 [Compound I-020] | 41 | 9.5 | 12 | – | – | – | – | – | – | – |
| Cc1ccc(-c2c([C@H](OC(C)(C)C)C(=O)O)c(C)c3c4c2cc(C)n4CCN3CCO)cc1 [Compound I-021] | 5.4 | 5.2 | 7.5 | 22 | – | – | – | – | – | – |
| Cc1ccc(-c2c([C@H](OC(C)(C)C)C(=O)O)c(C)c3c4c2cc(CO)n4CCN3C)cc1 [Compound I-022] | 4.5 | 17 | 25 | – | – | – | – | – | – | – |
| CCS(=O)(=O)N1CCn2c(C)cc3c(-c4ccc(Cl)cc4)c([C@H](OC(C)(C)C)C(=O)O)c(C)c1c32 [Compound I-023] | 12 | 1 | 2.6 | 5.5 | – | – | – | – | – | – |
| Cc1ccc(-c2c([C@H](OC(C)(C)C)C(=O)O)c(C)c3c4c2cc(C(F)F)n4CCN3C)cc1 [Compound I-024] | 22 | 1.6 | 2.1 | 7.7 | – | – | – | – | – | – |

| SMILES | Potency shift value [1] | EC50 [2, 4] [nM] | EC90 [2, 5] [nM] | EC50 [3, 6] [nM] | EC50 [2, 7] [nM] | EC90 [2, 7] [nM] | EC50 [2, 8] [nM] | EC50 [2, 9] [nM] | EC90 [2, 10] [nM] | EC50 [3, 11] [nM] |
| --- | --- | --- | --- | --- | --- | --- | --- | --- | --- | --- |
| CC(=O)N1CCn2c(C)cc3c(-c4ccc(Cl)cc4)c([C@H](OC(C)(C)C)C(=O)O)c(C)c1c32 [Compound I-025] | 11 | 2.3 | 3.1 | 13 | – | – | – | – | – | – |
| Cc1ccc(-c2c([C@H](OC(C)(C)C)C(=O)O)c(C)c3c4c2cc(C)n4CCN3CCNC2CC2)cc1 [Compound I-028] | 2.5 | 74 | 93 | – | – | – | – | – | – | – |
| Cc1c([C@H](OC(C)(C)C)C(=O)O)c(-c2ccc(Cl)cc2)c2cc(C)n3c2c1N(S(=O)(=O)CC[Si](C)(C)C)CC3 [Compound I-029] | 28 | – | – | 89 | 8.6 | 12 | – | – | – | – |
| Cc1c([C@H](OC(C)(C)C)C(=O)O)c(-c2ccc(Cl)cc2)c2cc(C)n3c2c1N1C(=O)OCC[C@@H]1C3 [Compound I-167] | 4.1 | – | 18 | 49 | – | – | 7.6 | – | – | – |
| Cc1ccc(-c2c([C@H](OC(C)(C)C)C(=O)O)c(C)c3c4c2cc(C)n4CCN3CCN2CCCO2)cc1 [Compound I-170] | 3.5 | – | 5.2 | 18 | – | – | 3.1 | – | – | – |
| Cc1c([C@H](OC(C)(C)C)C(=O)O)c(-c2ccc(F)cc2)c2cc(C)n3c2c1N(CCN(C)C)CC3 [Compound I-171] | 1.4 | – | 24 | 62 | – | – | 15 | – | – | – |
| Cc1ccc(-c2c([C@H](OC(C)(C)C)C(=O)O)c(C)c3c4c2cc(C)n4CCN3CCN2C3CCC2COC3)cc1 [Compound I-172] | 2.3 | – | 5.4 | 16 | – | – | 3.5 | – | – | – |
| Cc1ccc(-c2c([C@H](OC(C)(C)C)C(=O)O)c(C)c3c4c2cc(C)n4CCN3c2ncc(N3CCN(C)CC3)cn2)cc1 [Compound I-204] | 3.6 | – | – | – | – | – | – | 4.1 | 5.8 | 9.5 |
| COc1cnc(N2CCn3c(C)cc4c(-c5ccc(C)cc5O)c([C@H](OC(C)(C)C)C(=O)O)c(C)c2c43)nc1 [Compound I-205] | 32 | – | – | – | – | – | – | 16 | 35 | 63 |
| Cc1ccc(-c2c([C@H](OC(C)(C)C)C(=O)O)c(C)c3c4c2cc(C)n4CCN3c2ncc(C3CCN(C)CC3)cn2)cc1 [Compound I-213] | 3.9 | – | – | – | – | – | – | 12 | 19 | 31 |
| COc1cnc(N2CCn3c(C)cc4c(-c5ccc(C)cc5)c([C@H](OC(C)(C)C)C(=O)O)c(Cl)c2c43)nc1 [Compound I-226] | 26 | – | – | – | – | – | – | 1.2 | 1.6 | 3.6 |
| Cc1ccc(-c2c([C@H](OC(C)(C)C)C(=O)O)c(C)c3c4c2cc(C)n4CCN3c2noc(C)n2)cc1 [Compound I-227] | 15 | 1 | 1.4 | 4.1 | – | – | – | – | – | – |
| COc1cnc(N2CCn3c(C)cc4c(-c5c(F)cc(C)cc5F)c([C@H](OC(C)(C)C)C(=O)O)c(C)c2c43)nc1 [Compound I-230] | 24 | 1.8 | 3.3 | 6.7 | – | – | – | – | – | – |
| Cc1ccc(-c2c([C@H](OC(C)(C)C)C(=O)O)c(C)c3c4c2cc(C)n4CCN3c2ncc(C)cn2)cc1 [Compound I-235] | 46 | 1.6 | – | 2.8 | – | – | – | – | – | – |
| Cc1c([C@H](OC(C)(C)C)C(=O)O)c(-c2ccc(Cl)cc2)c2cc(C)n3c2c1N(c1ncc(N2CCOCC2)cn1)CC3 [Compound I-246] | 23 | 2.3 | 2.5 | 4.5 | – | – | – | – | – | – |
| Cc1c([C@H](OC(C)(C)C)C(=O)O)c(-c2ccc(Cl)cc2)c2cc(C)n3c2c1N(c1ncc(OCCO)cn1)CC3 [Compound I-254] | 10 | 7.9 | 13 | 17 | – | – | – | – | – | – |
| COCCCOc1cnc(N2CCn3c(C)cc4c(-c5ccc(Cl)cc5)c([C@H](OC(C)(C)C)C(=O)O)c(C)c2c43)nc1 [Compound I-255] | 22 | 1.6 | 2.4 | 5.1 | – | – | – | – | – | – |

Source: patent publication US10494380B2, “Nitrogen-containing tricyclic derivatives having HIV replication inhibitory activity” (priority 2015, dated 2019)
